Structures can show the parent of a compound that is named as a salt.
How the values were obtained:
MRL-lpr/lpr mice = test: Repeated intramuscular administration for 56 days in MRL mice (lymph node weight); type: in vivo
Experimental: The effect of the keratan sulfate oligosaccharide was examined on MRL mice which are autoimmune disease model mice.
The PBS solution of the purified keratan sulfate disaccharide (III) which was prepared in Example 1 described above at a dose of 2.5 mg/kg, 5 mg/kg, or 10 mg/kg weight (hereinafter referred to as the 2.5 mg/kg administered group, the 5 mg/kg administered group, and the 10 mg/kg administered group, respectively), and PBS as the control (hereinafter sometimes referred to as the control group) was intramuscularly injected, respectively, to the femoral region of MRL-lpr/lpr mice seven times a week for eight weeks. After that, the mice were subjected to anatomization, and the weight of mesenteric lymph nodes and submandibular lymph nodes were determined to obtain the average weight, respectively. The results concerning mesenteric lymph nodes and submandibular lymph nodes are shown in FIG. 15 and FIG. 16 with the standard errors, respectively. In each group, seven mice were used.

submandibular lymph node = test: Apoptosis induction: TdT-mediated nick end labeling of submandibular lymph node; type: in vivo, MRL-lpr/lpr mice; settings: four weeks
Experimental: The PBS solution of the purified keratan sulfate disaccharide (III) which was prepared in Example 1 described above at a dose of 1 mg/kg, 5 mg/kg, or 25 mg/kg weight (hereinafter referred to as the 1 mg/kg administered group, the 5 mg/kg administered group, and the 25 mg/kg administered group, respectively), and PBS as the control (hereinafter sometimes referred to as the control group) was intramuscularly injected, respectively, to the femoral region of MRL-lpr/lpr mice seven times a week for four weeks. After that, the mice were subjected to anatomization to prepare the section specimens of submandibular lymph node (stained by the method of Gavrieli et al.; Terminal deoxynucleotidyl transferase (TdT)--mediated nick end labeling method; (J. Cell Biol., 119, 493-501 (1992))). In this staining method, apoptosis induced cells can be detected by detecting fragmented DNA ends. The specimens prepared was observed by a light microscope to determine the number of stained cells (the apoptosis induced cells; hereinafter sometimes referred to as the apoptosis cells) per unit area. In the figure, * and ** represent that they have the significant difference with p<0.05 and p<0.01, respectively (wherein "p" means a level of significance by the Bonferroni multiple comparative test). In each group, six mice were used.

papain-induced arthritis [1] = test: Papain-induced bilateral arthritis model, intra-articular administration (volume of synovial fluid); type: in vivo, Japanese white rabbits (female); settings: for Volume of Synovial Fluid: 7 days, n = 8, p < 0.05, control 729, normal 437
Experimental: (§1) The anti-inflammatory effect of the keratan sulfate oligosaccharide with rabbits of the papain-induced arthritis model was examined using the volume of synovial fluid as an indication.
Into the articular cavity of both knee joint of Japanese white rabbits (female) of 3 kg weight, 150 μl of the saline solution of papain (1%) was injected to prepare the arthritis model. One day after injecting papain, 150 μl of the PBS solution of the purified keratan sulfate tetrasaccharide (I) (1% solution; 1.5 mg/joint) which was prepared in Example 1 was injected into the articular cavity of the left joint (hereinafter referred to as "the keratan sulfate tetrasaccharide (I) administered foot"), and 150 μl of PBS was injected into that of the right joint (hereinafter referred to as "the keratan sulfate tetrasaccharide (I) unadministered foot"). Hereinafter the rabbits subjected to administration of the keratan sulfate tetrasaccharide (I) are referred to as "the administered group". And the rabbits subjected to the papain injection only (hereinafter referred to as the control group) and the normal rabbits not subjected to the papain injection (hereinafter referred to as the normal group) were also examined in the same manner hereinafter.
Seven days after the injection, the blood was drawn from the auricular artery, and plasma containing heparin was separated. After drawing the blood, the rabbits were anatomized and the both knee joint were separated. The articular cavity was washed with 2 ml of saline three times to recover the synovial fluid. The calcium concentrations in the plasma and the recovered synovial fluid were determined, and the volume of synovial fluid was calculated from the following formula.
Volume of Synovial Fluid (ul/articulation)=Amount of Calcium in Recovered
Synovial Fluid (μg/articulation)/Concentration of Calcium in Plasma
In the table, "n" represents the number of rabbits in each group used in the experiment.

papain-induced arthritis [2] = test: Papain-induced bilateral arthritis model, intramuscular administration (volume of synovial fluid); type: in vivo, Japanese white rabbits (female); settings: 0.5 mg/kg intramuscular
Experimental: as §1
Into the articular cavity of both knee joint of Japanese white rabbits (female) of 3 kg weight, 150 μl of the saline solution of papain (1%) was injected to prepare the arthritis model. […]
Seven days after the injection, the blood was drawn from the auricular artery, and plasma containing heparin was separated. […] The calcium concentrations in the plasma and the recovered synovial fluid were determined, and the volume of synovial fluid was calculated from the following formula. […]
The arthritis model was prepared by the method described in (1-1), and one day after injecting papain, 150 μl of the PBS solution of the purified keratan sulfate tetrasaccharide (I) (1% solution; 0.5 mg/kg weight) which was prepared in Example 1 was injected into the hip muscle of the left side (hereinafter referred to as "the keratan sulfate tetrasaccharide (I) administered group"). […] Seven days after the injection, the volume of synovial fluid was calculated in the same manner as in (1-1).

CC(=O)N[C@H]1C(O)O[C@H](COS(=O)(=O)O)[C@@H](O[C@@H]2O[C@H](COS(=O)(=O)O)[C@H](O)[C@H](O)[C@H]2O)[C@@H]1O (stereo partly drawn) [keratan sulfate disaccharide (III), Gal(6S)β1-4GlcNAc(6S)]
weight increase in mesenteric lymph nodes (FIG. 15) (MRL-lpr/lpr mice; 2.5 mg/kg i.m.): a suppressive effect on the weight increase in mesenteric lymph nodes was observed | weight increase in mesenteric lymph nodes and submandibular lymph nodes (FIG. 15, FIG. 16) (MRL-lpr/lpr mice; 10 mg/kg i.m.): that in mesenteric lymph nodes and submandibular lymph nodes were observed | number of the apoptosis cells (FIG. 22) (submandibular lymph node; 5 mg/kg i.m.): the number of the apoptosis cells increased significantly to the control group | number of the apoptosis cells (FIG. 22) (submandibular lymph node; any dose (1, 5, 25 mg/kg i.m.)): an increase in the number of the apoptosis cells was observed

CC(=O)N[C@H]1[C@H](O[C@H]2[C@@H](O)[C@@H](COS(=O)(=O)O)O[C@@H](O[C@H]3[C@H](O)[C@@H](NC(C)=O)C(O)O[C@@H]3COS(=O)(=O)O)[C@@H]2O)O[C@H](COS(=O)(=O)O)[C@@H](O[C@@H]2O[C@H](COS(=O)(=O)O)[C@H](O)[C@H](O)[C@H]2O)[C@@H]1O (stereo partly drawn) [keratan sulfate tetrasaccharide (I), Gal(6S)β1-4GlcNAc(6S)β1-3Gal(6S)β1-4GlcNAc(6S)]
Volume of Synovial Fluid (papain-induced arthritis [1]; Administered Foot, 1.5 mg/joint intra-articular, SD 147): 530 µL | Volume of Synovial Fluid (papain-induced arthritis [1]; Unadministered Foot, 1.5 mg in other joint, SD 130): 537 µL | volume of synovial fluid (result in words) (papain-induced arthritis [1]; intra-articular, bilateral model): significantly less than that in the control group | volume of synovial fluid (result in words) (papain-induced arthritis [2]; bilateral model): significantly less than that in the control group | Volume of Synovial Fluid (papain-induced arthritis [2]; 7 days, n = 12, SD 65.8, p < 0.01, control 729, normal 437): 561 µL
